Structures are written as SMILES.

The nature of series [1]: NOSTRA phase III trial: exposure control (pharmacokinetics), samples after end of infusion and 12 hours after end of infusion. In kind it is in vivo, human. The settings on record: exposure control samples; no utilizable values for parent. As to the method: An exposure control was performed with samples collected after end of infusion and 12 hours after end of infusion. Due to the high sensibility of Ronopterin to oxidation, no utilizable values could be obtained for Ronopterin and, therefore, the first metabolite, 4-amino-dihydrobiopterin, was used as a surrogate. The mean absolute concentration for the first metabolite of Ronopterin was 1071 ng/mL at the end of the infusion and 476 ng/mL 12 hours later (56% elimination). The mean absolute value for the second Ronopterin metabolite was 52 ng/mL at the end of the infusion and 37 ng/mL 12 hours after end of infusion.

The nature of series [2]: NOSTRA phase III trial: safety and adverse event analyses. Type of series: in vivo. As to the method:
Safety analyses was performed using standard descriptive methods.
The total number of treatment-emergent adverse events (TEAE) and the total number of patients with TEAEs, the total number of TEAEs related to the study drug (certain, probable, possible), the total number of patients with TEAEs related to the study drug, the total number of TEAEs and the total number of patients with serious TEAEs, the total number of patients with TEAEs leading to discontinuation of study treatment and the total number of patients with TEAEs leading to death were summarised by treatment arm.

For the next series, the system named is animal models of TBI. The settings on record: mice, Terpolilli et al. 2009; cited from earlier work.
In series [3] the test system is Moderate and Severe Traumatic Brain Injury. The settings on record: cited from earlier work.
The mark [4] stands for this setting: may be due to over-reporting of some centres.

In the case of `CC(O)C(O)C1CNc2nc(N)nc(N)c2N1` [Ronopterin, 4-Amino-(6R,S)-5,6,7,8-tetrahydro-L-biopterin], in series [1], the sensibility to oxidation entry was “high”. In addition, in series [2] (Ronopterin:placebo 11:3), the “number of renal AEs” value came out at 11. The “tolerability of study treatment” value in series [2] (TBI patients, 17 mg/kg over 48 hours) is reported as “well-tolerated”. The “number of related AE/SAEs” value in series [2] (between the groups (Ronopterin, placebo)) is “low and comparable”. Besides, in series [2] (in vivo), the “number of adverse events (AEs) and serious adverse events (SAEs) compared to placebo” value is recorded as “slightly higher”. Besides, in series [2] (setting [4]), the “ICP increased, number of patients” value was determined as 27 patients and the “ICP increased, proportion of patients” value stood at 23.9%. The “effect in animal models of TBI” value in the series with animal models of TBI is “beneficial”. Moreover, the “effect of infusion during the initial 12 hours after TBI” value in series [3] (Phase IIa trial [Stover]) was “benefits”. In series [3] (Stover et al. 2014 (NOSTRA phase IIa)), the “effect in phase II clinical trial” value is “beneficial”.
